Results: patent publication US9079854B2 (priority 2007, dated 2015)
Where two headings read alike, the source gives them in different places.

Legend:
[1] = system: tactile allodynia in a spinal nerve ligation neuropathic pain model; assay: Lumbar 5/6 spinal nerve ligation neuropathic pain model, mechanical paw withdrawal threshold (von Frey); assay type: in vivo, rat
Excerpt: Neuropathic pain was induced following the methods of Kim and Chung. Kim S H, Chung J M. An experimental model for peripheral neuropathy produced by segmental spinal nerve ligation in the rat. Pain 1992; 50:355-63. Rats were anesthetized and placed prone under a microsurgical apparatus. A midline incision was made on the back, and the right paraspinal muscles were separated from the spinous processes at the L4-S2 levels. The L6 transverse process was carefully removed, and the L4/5 spinal nerves were identified. The L5 nerve was tightly ligated with a 6-0 silk suture. The right L6 spinal nerve was then located just caudal and medial to the sacroiliac junction and tightly ligated with a silk suture.
Two weeks later after spinal nerve ligation, Intrathecal catheters (PE-10 tubing) was inserted into the rats while they were anesthetized with isoflurane, as described by Yaksh and Rudy. Yaksh T L, Rudy T A. Chronic catheterization of the spinal subarachnoid space. Physiology & Behavior 1976; 17:1031-6. A midline incision was made on the back of the neck. The muscle was freed at the attachment to the skull exposing the cisternal membrane. The membrane was opened with a stab blade and an 8.5 cm polyethylene (PE-10) catheter was then inserted through the cisternal opening, and passed carefully and caudally into the intrathecal space at the L1-L3 spinal segments. The end of the catheter was tunneled through the subcutaneous space over the frontal bones, flushed with 10 μl saline, and then plugged with a short length of wire Animal testing was performed 5-7 days after intrathecal catheter placement.
To assess mechanical allodynia, the mechanical paw withdrawal threshold was measured with a series of von Frey hairs (range 0.4-15 g). Rats were placed in elevated Perspex enclosures (28 cm×15 cm×18 cm) with wire mesh bases and given 15-20 min to acclimatize to the testing environment. Rats will be allowed to acclimatize for 30 min in a clear plastic cage with a wire mesh bottom. The calibrated von Frey filament fibers were applied to the hindpaw briefly for 6 seconds to determine the paw withdrawal threshold before and after drug injection (intraperitoneally or intrathecally). A series of von Frey filaments with exponentially incremental stiffness (0.4, 0.7, 1.2, 2.0, 3.6, 5.5, 8.5 and 15 g) were used to measure the 50% threshold for hindpaw withdrawal in awake, unrestrained rats. Chaplan S R, Bach F W, Pogrel J W, Chung J M, Yaksh T L. Quantitative assessment of tactile allodynia in the rat paw. Journal of Neuroscience Methods 1994; 53:55-63. Brisk paw withdrawal from the pressure of a filament gently bent against the plantar paw was defined as a positive response, and absence of withdrawal within 6 s as a negative response. Filaments were touched to the hindpaw in sequential ascending or descending order until the threshold of response is crossed (allowing about 10 s between each increment of the von Frey filaments). Each time the threshold is crossed, the direction of stimulus presentation was reversed and the procedure will be resumed. Four responses were collected after the first threshold detection, and the 50% withdrawal thresholds were interpolated. In cases where response thresholds fell outside the range of detection, 15.00 and 0.25 g were, respectively, assigned for continuous negative or positive responses to the limit of stimuli.
All surgical procedures were performed under deep isoflurane anesthesia in 100% O2. The spinal nerve ligation (SNL) was performed as described previously. Kim, S. H., et al., An Experimental Model for Peripheral Neuropathy Produced by Segmental Spinal Nerve Ligation in the Rat, Pain, 1992, 50:355-63. Briefly, a midline incision above the lumbar spine exposed the left L6 transverse process. The process was then removed, the left L5 and L6 spinal nerves were isolated, and both nerves were tightly ligated with 6-0 silk. […]

[2] = molecular target: T1, human CB1 (hCB1) receptor (Homo sapiens, UniProt P21554); assay: CB1 binding assay, competitive binding of [3H]CP 55940; parameters: % Inhibition of Control Specific Binding CB1: concentration or dose not given beside the values
T1 construct: expressed in transfected cells; host or cells: CHO (Chinese hamster ovary) cells, membranes
T1 sequence (P21554 whole entry): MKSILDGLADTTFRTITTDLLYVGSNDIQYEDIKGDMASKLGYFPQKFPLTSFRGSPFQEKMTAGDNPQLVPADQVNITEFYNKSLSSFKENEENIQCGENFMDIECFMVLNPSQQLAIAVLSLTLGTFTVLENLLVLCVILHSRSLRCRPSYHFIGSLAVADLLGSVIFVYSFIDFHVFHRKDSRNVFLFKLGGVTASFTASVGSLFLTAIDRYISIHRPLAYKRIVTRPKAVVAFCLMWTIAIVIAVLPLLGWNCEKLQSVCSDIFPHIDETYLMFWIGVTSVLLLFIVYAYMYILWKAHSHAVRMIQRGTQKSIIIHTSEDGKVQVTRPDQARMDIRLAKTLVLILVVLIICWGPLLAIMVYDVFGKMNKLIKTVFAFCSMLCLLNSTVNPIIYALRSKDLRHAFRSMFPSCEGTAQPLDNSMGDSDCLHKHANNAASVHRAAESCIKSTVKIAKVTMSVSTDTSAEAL
Summary of the method: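 CHO cell membranes expressing human CB1 (25 μg protein) incubated 120 min at 37 °C with 0.5 nM [3H]CP 55940 in Tris-HCl pH 7.4 buffer with MgCl2, EDTA, 0.3% BSA. Filtration and scintillation counting; compound tested at 1 μM, given as percent inhibition of control specific binding.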

[3] = molecular target: T2, hCB2 receptor (Homo sapiens, UniProt P34972); assay: CB2 functional assay, [35S]GTP-γ-S binding; assay type: biochemical
T2 construct: purchased ES-111-MG; host or cells: CHO membrane extracts
T2 sequence (P34972 whole entry): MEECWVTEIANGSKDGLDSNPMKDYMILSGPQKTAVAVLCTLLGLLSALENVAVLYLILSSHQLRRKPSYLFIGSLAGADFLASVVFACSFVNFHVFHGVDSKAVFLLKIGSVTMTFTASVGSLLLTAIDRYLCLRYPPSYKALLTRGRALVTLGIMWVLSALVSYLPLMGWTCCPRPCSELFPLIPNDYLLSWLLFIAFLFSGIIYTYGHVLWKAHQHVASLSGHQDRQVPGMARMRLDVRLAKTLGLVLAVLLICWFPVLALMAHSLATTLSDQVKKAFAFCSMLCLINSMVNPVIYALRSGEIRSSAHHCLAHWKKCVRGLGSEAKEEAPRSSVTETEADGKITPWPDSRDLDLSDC

CCCCCCN1C(=O)/C(=N\NC(=O)c2ccccc2)c2ccccc21 [Example 6, Benzoic acid [1-n-hexyl-2-oxo-1,2-dihydro-indol-3-ylidene]-hydrazide]
duration of peak threshold ([1]; IP 30 mg/kg, rats): one
peak paw withdrawal threshold ([1]; IP 30 mg/kg, rats): 15 g
time of peak effect following administration ([1]; IP 30 mg/kg, rats): ≤ 5 min
effect on mechanical paw withdrawal threshold ([1]; IP administration of 30 mg/kg in 0.5 ml, rats): produced an increase in mechanical paw withdrawal threshold
ED50 ([1]; Rattus norvegicus, ip, rats, spinal nerve ligation, 95% CI, read-out: ED50 of the anti-allodynic effect): 5.9 mg/kg
ED90 of the anti-allodynic effect ([1]; i.p., rats, spinal nerve ligation, 95% CI): 12 (95% CI 9.6-15.5) mg/kg
effect on paw withdrawal threshold ([1]; intrathecal (IT) administration, at 5 min, rats): short-lived modest increase in paw withdrawal threshold
behavioral abnormalities or side effects ([1]; rats of the nerve-ligation study): No behavioral abnormalities or side effects were noted
% Inhibition of Control Specific Binding ([2]; CB1, Test Concentration 1.0E−05 (MD)): 96%
% of Control Specific Binding 1st ([2]; CB1, Test Concentration 1.0E−05 (MD), 1st determination): 4.5%
% of Control Specific Binding 2nd ([2]; CB1, Test Concentration 1.0E−05 (MD), 2nd determination): 4.5%
% of Control Specific Binding Mean ([2]; CB1, Test Concentration 1.0E−05 (MD), mean): 4.5%
% Inhibition of Control Specific Binding CB1 ([2]; Table 3, concentration not given): 96%
inhibition at 1 µM ([2]; at 1 μM, specific binding of [3H]-CP55940, CHO membranes): 95.5%
inhibition at 10 µM ([2]; at 10 μM, specific binding of [3H]-CP55940): 95.5%
% Activation Average ([3]; CB2 Functional Activity): 68.81%
Compound Activity ([3]; CB2 Functional Activity): Agonist
EC50 ([3]; CB2 Functional Activity, read-out: EC50 (nM) for GTP Binding): 63.4 nM
ratio EC50(CB1)/EC50(CB2) ([3]; CB2 receptor selectivity, [35S]GTP-γ-S): 14
EC50 ([3]; Table 7, mean of two determinations, read-out: [35S]GTP-γ-S (hCB2) EC50 (nM ± SEM)): 63.4 ± 1.3 nM
Emax ([3]; Table 7, relative to the efficacy of CP55940): 68.8%
EC50 ([3]; Table 9, mean of two determinations, read-out: [35S]GTP-γ-S hCB2 EC50 (nM ± SEM)): 63.4 ± 1.3 nM
Emax ([3]; Table 9, relative to the efficacy of CP 55,940): 68.8%
times less potent compared to the reference compound CP55,940 ([3]; functional activity, [35S]GTP-γ-S): seven
